For 11 molecules, GI50 and TGI results are on record in PubChem BioAssay (NCI).

Common to all, as to assay: growth of human tumour cells (NCI), 48 h
Test [1] concerns CAKI-1 renal.
The subject of test [2] is NCI-H522 lung.
Test [3] concerns UACC-62 melanoma.
Test [4] relates to SN12C renal.
The test system of test [5] is RXF 393 renal.
Test [6] concerns MALME-3M melanoma.
Test [7] relates to SF-268 CNS.
For test [8], the system named is SK-MEL-5 melanoma.

Where “and” joins values, the source holds several entries; their conditions need not be identical. Equal values may be shown once.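 A five-concentration, 48-hour dose response in 96-well plates underlies each endpoint, interpolated linearly between surrounding concentrations. At the GI50, growth is halved. TGI: total growth inhibition.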

For `CCn1c(-c2nonc2N)nc2c(C#CC(C)(C)O)nc(OC[C@@H](N)c3ccccc3)cc21`, the GI50 was 6.53 µM in test [1]; 4.28 µM in test [2]; 4.89 µM in test [3]; 3.96 µM in test [4]; 2.85 µM in test [5]; 5.46 µM in test [6]. Also, the GI50 was 5.04 µM in test [7] and 3.99 µM in test [8]. Also, the TGI in test [1] was found to be 14.1 µM; in test [2] it was 7.9 µM; in test [3], 8.79 µM; in test [4] it was 7.66 µM; in test [5], 5.97 µM; in test [6] it was 9.77 µM. In addition, the TGI in test [7] turned out to be 9.22 µM; in test [8] it was 7.37 µM.
`CC(=O)CC(OC(C)=O)C1=CCC2C(CC1C)OC(=O)C2C` (centres undefined): the TGI in test [1], in test [2], in test [3], in test [4], in test [5] and in test [6] was above 100 µM each time. The TGI in test [7] and in test [8] was above 100 µM each time.
In the case of `O=C(O)c1nc2nc(Cl)c(Cl)nc2[nH]1`, the TGI in test [1], in test [2], in test [3], in test [4], in test [5] and in test [6] was above 100 µM each time. The TGI in test [7] and in test [8] was above 100 µM throughout.
In the case of `CC1=C2C(=C[C@@](C)(CO)[C@@H]2O)C(=O)[C@](C)(O)C12CC2`, the GI50 in test [1] is 0.178 µM. In addition, the TGI in test [2] was 0.0108 µM; in test [3], 0.0265 µM; in test [4], 0.112 µM and 0.119 µM; in test [5], 0.018 µM; in test [6] it was 0.0243 µM; in test [7] it was 0.0192 µM and 0.106 µM. Moreover, the TGI in test [8] was found to be 0.0183 µM.
Consider `N#CC(C#N)=C/C=C(\Sc1nc2ccccc2s1)c1ccc(Cl)cc1`, for which the GI50 in test [1] was 1.93 µM; in test [2], 10.1 µM; in test [3], 8.89 µM; in test [4], 7.88 µM; in test [5] it was 7.59 µM; in test [6], 5.29 µM. Further, the figures for the GI50 in test [7] and in test [8] were 14.6 µM and 10.4 µM, respectively. The TGI in test [1] was 9.82 µM; in test [2], 41.9 µM; in test [3], 29.4 µM; in test [4], above 53.1 µM; in test [5], 25.9 µM; in test [6], 16.5 µM. Besides, the figures for the TGI in test [7] and in test [8] were 33 µM and 24.6 µM, respectively.
For the molecule `COCCOc1ccc(-c2nc3ccc(-c4nc5ccc(N6CCN(C)CC6)cc5[nH]4)cc3[nH]2)cc1`, the GI50 in test [1] was 2.25 µM; in test [2] it was 0.341 µM; in test [3], 0.365 µM; in test [4], 1.42 µM; in test [5], 1.8 µM; in test [6] it was 0.165 µM. The GI50 was 0.576 µM in test [7] and 0.351 µM in test [8]. Further, the TGI in test [1] is above 100 µM; in test [2], 2.36 µM; in test [3], 2.02 µM; in test [4], 11.8 µM; in test [5], 3.63 µM; in test [6] it was 1.55 µM. Also, the TGI in test [7] was determined as 5.67 µM; in test [8] it was 1.88 µM.
Turning to `Nc1cc(NN=C(c2ccc(O)cc2)c2ccc(O)cc2)c([N+](=O)[O-])cc1[N+](=O)[O-]`, the GI50 in test [1] is 1.88 µM; in test [2] it was 2.46 µM; in test [3] it was 1.66 µM; in test [4], 1.58 µM; in test [5], 1.59 µM; in test [6], 2.45 µM. For the same molecule, the results for the GI50 in test [7] and in test [8] were 1.73 µM and 1.52 µM, respectively. Besides, the TGI came out at 5.24 µM in test [1]; 6.51 µM in test [2]; 3.01 µM in test [3]; 3.4 µM in test [4]; 3.15 µM in test [5]; 5.96 µM in test [6]. Besides, the TGI is 3.45 µM in test [7] and 2.85 µM in test [8].
Turning to `N[C@@H]1CCCC[C@@H]1N.O=P([O-])([O-])CN(CCN(CP(=O)([O-])[O-])CP(=O)([O-])[O-])CP(=O)([O-])[O-].[Pt+2]`, the GI50 in test [1], in test [2], in test [3], in test [4], in test [5] and in test [6] was above 25 µM each time. Besides, the GI50 in test [7] and in test [8] was above 25 µM in each case. For the same molecule, the TGI in test [1], in test [2], in test [3], in test [4], in test [5] and in test [6] was above 25 µM throughout. Further, the TGI in test [7] and in test [8] was above 25 µM each time.
On to `CC1(C)OC1COc1c2occc2cc2ccc(=O)oc12` (centres undefined), for which the TGI in test [1], in test [2], in test [3], in test [4], in test [5] and in test [6] was above 100 µM in each case. Further, the TGI in test [7] and in test [8] was above 100 µM each time.
In the case of `COc1ccc(CCN=C2NC(=O)/C(=C/c3ccc4ncccc4c3)S2)cc1`, the GI50 was above 21.2 µM in test [1]; above 25 µM in test [2]; above 25 µM in test [3]; above 25 µM in test [4]; above 25 µM in test [5]; above 25 µM in test [6]. The GI50 in test [7] and in test [8] was above 25 µM each time. Moreover, the TGI in test [1], in test [2], in test [3], in test [4], in test [5] and in test [6] was above 25 µM throughout. Moreover, the TGI in test [7] and in test [8] was above 25 µM in each case.
With `CCCCCCCCCCn1cc[n+](C)c1`, the GI50 was 1.79 µM in test [1]; 1.86 µM in test [2]; 2.53 µM in test [3]; 2.54 µM in test [4]; 2.94 µM in test [5]; 2.26 µM in test [6]. Further, the GI50 in test [7] was 3.77 µM; in test [8], 1.17 µM. The TGI worked out at 23.5 µM in test [1]; 10.4 µM in test [2]; 10.6 µM in test [3]; 9.71 µM in test [4]; 14.2 µM in test [5]; 17.6 µM in test [6]. For the same molecule, the TGI in test [7] was found to be 18.3 µM; in test [8], 2.79 µM.
